Assay results taken from US20260283988A1, “FERROPTOSIS INHIBITORS” (priority 2023, published 2026).
Like-named read-outs stand apart in the source and are kept apart here.

Assays:
[1] = Cytotoxicity, cell viability assay; assay type: cell-based, Human; details: human, ht-1080 cells, * = signal quenching at higher concentration, toxicity might be less than indicated; read-out: cytotoxic IC50
Protocol: (§1) After 24 h of growth, cells were treated with 10 or 12-point serial dilutions of compounds in indicated concentrations for 18 h.

[2] = system: HT-1080; experiment: Apoptosis assay, Staurosporine-induced Caspase 3/7 activity (Caspase-Glo 3/7); assay type: cell-based, Human
Protocol: For detecting apoptosis, HT-1080 were treated with Staurosporine before addition of Seratrodast or zVAD-FMK. Caspase 3/7 activity was measured 18 hours later via Caspase-Glo® 3/7 Assay Reagent (Promega) according to the manufacturer's instruction. Cells were incubated for 45 min at room temperature and luminescence was measured.

[3] = system: Mouse Embryonic Fibroblasts (MEF); experiment: Necroptosis assay, TNFα + zVAD-FMK + LCL161, cell viability; assay type: cell-based
Protocol: For detecting necroptosis, MEF were treated with TNFα, zVAD-FMK and LCL161 before addition of Seratrodast or Necrostatin-1. Cell viability was measured after 18 hours by adding CellTiter-Glo® 2.0 Reagent (Promega) according to the manufacturer's instruction and luminescence was read out.

[4] = system: HT-1080; experiment: Ferroptosis inhibition, cell viability assay (CellTiter-Glo); assay type: cell-based, Human; details: for IC50: read-out: IC50 (Ferroptosis inhibition); for cellular efficacy/toxicity window: cytotoxic IC50 versus ferroptosis inhibition IC50, 1080 min
Protocol: Cell lines: Human fibrosarcoma cell line HT-1080 and immortalized Mouse Embryonic Fibroblasts (MEF). MEFs were a gift from Daniel Krappmann, HT-1080 were purchased from ATCC and both cell lines were grown in Dulbecco's Modified Eagle's medium (Thermo Fisher Scientific, 41966-029) supplemented with 10% fetal bovine serum (FBS, Thermo Fisher Scientific), 1% Penicillin-Streptomycin (Thermo Fisher Scientific) and 1% nonessential amino acids (MEM NEAA, Thermo Fisher Scientific). Cells were grown at 37° C. and 5% CO2.
HT-1080 were seeded into 384-well plates (CulturPlates, PerkinElmer) with a density of 750 cells per well. After 24 h of growth, cells were treated with 10 or 12-point serial dilutions of compounds in indicated concentrations for 18 h. Viability was detected by using CellTiter-Glo® 2.0 Regent (Promega) according to the manufacturer's instruction and luminescence was read out in an EnVison 2104 Multilabel plate reader (PerkinElmer).

[5] = Cell-free BODIPY assay with AAPH; assay type: biochemical; details: 25 μM compound; 7.5 mM AAPH
Protocol: As a control, the same amount of DMSO was diluted in 150 μl PBS. […] For the non-oxidized control, one sample was prepared as DMSO only without AAPH. All three solutions were mixed equally and incubated for 30 min at room temperature in the dark.

[6] = system: HT-1080-derived spheroids; experiment: 3D spheroid formation and imaging (roundness); assay type: cell-based, Human; details: 200 nM RSL3; 2 μM Fer-1; 6 μM Seratrodast, 48 h
Protocol: Over a period of 48 h spheroids were formed and subsequently treated with RSL3, and Ferrostatin-1 or Seratrodast. […] Images were acquired using an Operetta high-content imaging system (PerkinElmer) and analyses were conducted with the Columbus software (PerkinElmer). For analysis, spheroids were detected as “Image region” and morphology properties were calculated (roundness).

[7] = system: HT-1080; experiment: Flow cytometry, BODIPY 581/591 C11 lipid peroxidation sensor; assay type: cell-based, Human; details: 200 nM RSL3; 6 μM Seratrodast, 2.5 h
Protocol: (§2) HT1080 cells were grown in 6-well plates (200,000 cells per well) and incubated for 24 h. For staining with BODIPY 581/591 C11 (Thermo Fisher Scientific), cells were treated with RSL3, and Ferrostatin-1 or Seratrodast for 2 h, then BODIPY was added into the wells to a final concentration of 2 μM. After 30 min incubation, cells were detached using Trypsin and washed two times with PBS. Between the wash steps, cells were centrifuged at 500×g for 5 minutes. After the final washing step, cell pellets were resuspended in 300 μl PBS and 10,000 events per condition were analyzed in the BL-1 channel of an Attune acoustic flow cytometer (Applied Biosystems). For detection of 4-Hydroxynonenal (4-HNE), HT-1080 were induced with RSL3, and co-treated with Ferrostatin-1 or Seratrodast for 2 h before they were detached using Trypsin. Cell pellets were incubated in 10% normal goat serum (Thermo Fisher Scientific) for 30 min on ice. Subsequently, cells were incubated with anti-4-HNE antibody (1:50 dilution in 1% BSA in PBS, ab46545, Abcam) for 1 h on ice. […] For flow cytometry, cells were collected in 300 μl PBS and 10,000 events per condition were analyzed in an Attune acoustic flow cytometer (Applied Biosystems), using the BL-1 channel. FlowJo™ v10.8.1 (BD Life Sciences) was used for creating histograms and analyzing fluorescence intensity.

[8] = system: HT-1080; experiment: Flow cytometry, 4-Hydroxynonenal (4-HNE) immunostaining; assay type: cell-based, Human; details: 300 nM RSL3; 6 μM Seratrodast, 2 h
Protocol: as §2

[9] = system: HT-1080; experiment: TBARS assay (MDA levels); assay type: cell-based, Human; details: 250 nM RSL3; 6 μM Seratrodast, 2.5 h
Protocol: 2 million HT-1080 cells were seeded into 150 mm dishes and grown for 48 hours. Ferroptosis was induced with RSL3 for 2.5 hours and cells were co-treated with Ferrostatin-1 or Seratrodast. Cells were detached by 0.05% Trypsin-EDTA (Thermo Fisher Scientific) and cell number was adjusted to the sample with the lowest cell count. For measuring MDA levels, TBARS (TCA Method) Assay Kit (Cayman Chemical, 700870) was used according to manufacturer's instruction. Fluorescence was detected at 530 nm/550 nm in an EnVision 2104 Multilabel plate reader (PerkinElmer).

[10] = system: HT-1080; experiment: Cytotoxicity, cell viability assay; assay type: cell-based, Human; details: * = signal quenching at higher concentration, toxicity might be less than indicated; 1080 min; read-out: cytotoxic IC50
Protocol: as §1

[11] = Homo sapiens, HT-1080, based on the assays of example 1
[12] = based on the assays of example 1

Q: For CC1=C(Nc2ccc(C)cc2C)C(=O)c2ccccc2C1=O [iQFerr41, 2-[(2,4-dimethylphenyl)amino]-3-methyl-1,4-dihydronaphthalene-1,4-dione], which CC50 at 18 h [1] is on record?
A: 13400 nM

Q: And the Apoptosis inhibition [2]?
A: no

Q: What about the Necroptosis inhibition [3] of the same compound?
A: no

Q: And the IC50 [4, 11]?
A: 2.91 nM

Q: What about the cellular efficacy/toxicity window [4] of the same compound?
A: 4601-fold

Q: Which CC50 at 18 h [1] does the source give for CC(=O)Nc1ccc(NC2=C(C)C(=O)c3ccccc3C2=O)cc1 [iQFerr39, N-{4-[(3-methyl-1,4-dioxo-1,4-dihydronaphthalen-2-yl)amino]phenyl} acetamide] here?
A: 43500 nM

Q: What about the Apoptosis inhibition [2] of the same compound?
A: no

Q: And the Necroptosis inhibition [3]?
A: no

Q: What about the IC50 [4, 11] of the same compound?
A: 17 nM

Q: What about the cellular efficacy/toxicity window [4] of the same compound?
A: 2561-fold

Q: For Cc1ccc(N(CCCCCC(N)=O)C2=CC(=O)c3ccccc3C2=O)c(C)c1 [iQFerr43, 6-[(2,4-dimethylphenyl)(1,4-dioxo-1,4-dihydronaphthalen-2-yl)amino]hexanamide], which CC50 at 18 h [1] is on record?
A: 75400 nM

Q: And the Apoptosis inhibition [2]?
A: no

Q: And the Necroptosis inhibition [3]?
A: no

Q: What about the IC50 [4, 11] of the same compound?
A: 116 nM

Q: What about the cellular efficacy/toxicity window [4] of the same compound?
A: 653-fold

Q: What does the source list for CC(=O)Nc1ccc(NC2=CC(=O)c3ccccc3C2=O)cc1 [iQFerr20, N-[4-(1,4-dioxo-1,4-dihydronaphthalen-2-yl-amino)phenyl]acetamide]?
A: CC50 at 18 h [1]: 10200 nM; Apoptosis inhibition [2]: no; Necroptosis inhibition [3]: no; IC50 [4, 11]: 8.12 nM; cellular efficacy/toxicity window [4]: 1254-fold

Q: What does the source list for Cc1ccc(NC2=C(C(F)(F)F)C(=O)c3ccccc3C2=O)c(C)c1 [iQFerr47, 2-[(2,4-dimethylphenyl)amino]-3-(trifluoromethyl)-1,4-dihydronaphthalene-1,4-dione]?
A: CC50 at 18 h [1]: 14700 nM; Apoptosis inhibition [2]: no; Necroptosis inhibition [3]: no; IC50 [4, 11]: 10.1 nM; cellular efficacy/toxicity window [4]: 1458-fold

Q: Which “oxidative fluorescence induced by AAPH (cell-free C11-BODIPY)” value [5] does the source give for CC1=C(C)C(=O)C(C(CCCCCC(=O)O)c2ccccc2)=C(C)C1=O (stereo not drawn) [iQFerr01, Seratrodast, reference compound] here?
A: significantly reduced oxidative fluorescence

Q: What about the “inhibition of ferroptosis in 3D spheroid model (spheroid roundness)” value [6] of the same compound?
A: fully inhibited ferroptosis-based spheroid destruction

Q: And the CC50 at 18 h [1]?
A: 57900 nM

Q: And the Apoptosis inhibition [2]?
A: no

Q: And the inhibition of apoptosis ([2]; 6 μM, 1 μM Staurosporine, 18 h)?
A: does not inhibit apoptosis

Q: What about the Necroptosis inhibition [3] of the same compound?
A: no

Q: And the inhibition of necroptosis ([3]; 6 μM, 20 ng/ml TNFα + 10 μM Z-VAD-FMK + 10 μM LCL161 for 18 h)?
A: does not inhibit necroptosis

Q: And the “RSL3-mediated peroxidation of the C11-BODIPY sensor” value [7]?
A: largely reduced

Q: And the “RSL3-induced 4-hydroxynonenal (4-HNE) levels” value [8]?
A: reduced

Q: And the “RSL3-induced malondialdehyde (MDA) levels” value [9]?
A: eliminated levels of malondialdehyde

Q: And the “suppression of ferroptosis (cell viability)” value ([4]; 100 nM RSL3 or 1.5 μM IKE for 18 h)?
A: dose-dependently suppresses ferroptosis

Q: What about the “inhibition of ferroptosis induced by RSL3, IKE, FINO2 and FIN56” value ([4]; 6 μM Seratrodast, 2 μM Fer-1, 18 h) of the same compound?
A: able to suppress ferroptosis induced by all four FINs

Q: And the IC50 [4, 11]?
A: 290 nM

Q: And the cellular efficacy/toxicity window [4]?
A: 200-fold

Q: Which “oxidative fluorescence induced by AAPH (cell-free C11-BODIPY)” value [5] does the source give for CCOC(=O)c1ccc(NC2CCCCC2)c(N)c1 [Ferrostatin-1] here?
A: significantly reduced oxidative fluorescence

Q: And the “inhibition of ferroptosis in 3D spheroid model (spheroid roundness)” value [6]?
A: fully inhibited ferroptosis-based spheroid destruction

Q: With Cc1ccc(NC2=C(Cl)C(=O)c3ccccc3C2=O)c(C)c1 [iQFerr14, 2-chloro-3-(2,4-dimethylanilino)-1,4-naphtoquinone] as the compound, how does the CC50 [10] read?
A: 1000 nM

Q: And the IC50 [4, 12]?
A: 0.034 nM

Q: And the cellular efficacy/toxicity window [4]?
A: 5000-fold

Q: Which results are given for Cc1ccc(N(CCCCCC(=O)O)C2=CC(=O)c3ccccc3C2=O)c(C)c1 [iQFerr38, 6-[(2,4-dimethylphenyl)(1,4-dioxo-1,4-dihydronaphthalen-2-yl)amino]hexanoic acid]?
A: CC50 at 18 h [1]: 49800 nM; Apoptosis inhibition [2]: no; Necroptosis inhibition [3]: no; IC50 [4, 11]: 215 nM; cellular efficacy/toxicity window [4]: 232-fold

Q: With CC1=C(Nc2cc(C)cc(C)c2)C(=O)c2ccccc2C1=O [iQFerr46, 2-[(3,5-dimethylphenyl)amino]-3-methyl-1,4-dihydronaphthalene-1,4-dione] as the compound, how does the CC50 at 18 h [1] read?
A: 77600 nM

Q: And the Apoptosis inhibition [2]?
A: no

Q: And the Necroptosis inhibition [3]?
A: no

Q: What about the IC50 [4, 11] of the same compound?
A: 2.11 nM

Q: And the cellular efficacy/toxicity window [4]?
A: 36758-fold

Q: For Cc1ccc(NC2=C(Cl)C(=O)c3ccccc3C2=O)c(C)c1 [iQFerr35, 2-chloro-3-[(2,4-dimethylphenyl)amino]-1,4-dihydronaphthalene-1,4-dione], which CC50 [10] is on record?
A: 5570 nM

Q: And the IC50 [4, 12]?
A: 0.692 nM

Q: What about the cellular efficacy/toxicity window [4] of the same compound?
A: 8051-fold
